Source: paper PMC9577195, “Pharmacokinetics, bioavailability, and plasma protein binding study of glytrexate, a novel multitarget antifolate” (Frontiers in Pharmacology, 2022)

Key:
[1] = design: method as in Pangeni et al., 2018; settings: rat, ref Pangeni et al., 2018, cited from earlier work
KB tumor cells = test system: KB tumor cells; design: method as in Xing et al., 2017; settings: positive control, ref Xing et al., 2017, read-out: IC50, inhibitory action on KB tumor cells; cited from earlier work
[2] = Pharmacokinetics and bioavailability in rats after single oral and intravenous doses; format: in vivo, Sprague-Dawley rats; settings: rat, pemetrexed 20 mg/kg vs glytrexate 25 mg/kg
human plasma proteins = test system: human plasma proteins; design: method as in Robinson et al., 2004; settings: ref Robinson et al., 2004; cited from earlier work

- oral AUC of pemetrexed relative to oral glytrexate [2]: approximately 12 fold
Compound: Nc1nc2[nH]cc(CCc3ccc(C(=O)N[C@@H](CCC(=O)O)C(=O)O)cc3)c2c(=O)[nH]1 [pemetrexed]
- AUC after intravenous administration ([1]; intravenous 10 mg/kg): 31.3 ± 5.34 μg⋅h/mL
- T1/2 after intravenous administration ([1]; intravenous): 34.4 ± 4.26 min
- AUC after oral administration ([1]; oral 20 mg/kg): 7.55 ± 0.938 μg⋅h/mL
- oral bioavailability [1]: 12.0 ± 1.45%
- IC50 (KB tumor cells): 70 nM
- human plasma protein binding rate (human plasma proteins): 81%
